For 16 compounds, AC50, EC50 and IC50 results are on record in ChEMBL document CHEMBL1201862, “PubChem BioAssay data set” (2004).

Assay [1] in a line: Luminescence Cell-Based Dose Retest to Confirm Inhibitors of Cancer Stem Cells. [Related pubchem assays (depositor defined):AID2717, AID2721]. Format: functional. The note with it: Homo sapiens.
A further assay has as its system Streptococcus. As to the kind of experiment: Group A Streptococcus viability loss, dose response, counter-screen for streptokinase expression inhibitor project, luminescence, BacTiterGlo (AID 1915).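 Also: potency for reduction of bacterial viability or growth.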 Format: functional, organism-based. (A counterscreen serves to expose hits that act by an unwanted route or on another target.)
Assay [2] can be described thus: Counterscreen for inhibitors of Trypanosoma brucei methionyl tRNA synthetase (MetRS): Luminescence-based cell-based high throughput dose response assay to identify compounds that are cytotoxic to Jurkat human T lymphocyte cells. Format: functional.
Assay [3] deals with Streptococcus sp. 'group A'. As to the kind of experiment: growth inhibition of control SK(-) GAS strain, dose response, counter-screen for streptokinase expression inhibitor project, luminescence, kanamycin, BacTiterGlo, confirmation (AID 1900). Format: functional, organism-based.
The target of assay [4] is T1, Sentrin-specific protease 8 (Homo sapiens, UniProt Q96LD8).
T1 sequence (Q96LD8 whole entry): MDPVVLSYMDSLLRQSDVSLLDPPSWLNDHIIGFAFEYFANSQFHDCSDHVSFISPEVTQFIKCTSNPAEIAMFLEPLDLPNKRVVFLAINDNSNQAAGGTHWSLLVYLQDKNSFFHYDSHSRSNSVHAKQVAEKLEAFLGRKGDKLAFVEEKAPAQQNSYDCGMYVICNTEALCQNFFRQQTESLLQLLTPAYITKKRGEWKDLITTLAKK
The assay is classed as functional.

Assay [5] has as its target T1, Sentrin-specific protease 8. Format: functional. The source holds these as a separate data set.
The target of assay [6] is T2, Short transient receptor potential channel 4 (Mus musculus, UniProt Q9QUQ5).
T2 sequence (Q9QUQ5 whole entry): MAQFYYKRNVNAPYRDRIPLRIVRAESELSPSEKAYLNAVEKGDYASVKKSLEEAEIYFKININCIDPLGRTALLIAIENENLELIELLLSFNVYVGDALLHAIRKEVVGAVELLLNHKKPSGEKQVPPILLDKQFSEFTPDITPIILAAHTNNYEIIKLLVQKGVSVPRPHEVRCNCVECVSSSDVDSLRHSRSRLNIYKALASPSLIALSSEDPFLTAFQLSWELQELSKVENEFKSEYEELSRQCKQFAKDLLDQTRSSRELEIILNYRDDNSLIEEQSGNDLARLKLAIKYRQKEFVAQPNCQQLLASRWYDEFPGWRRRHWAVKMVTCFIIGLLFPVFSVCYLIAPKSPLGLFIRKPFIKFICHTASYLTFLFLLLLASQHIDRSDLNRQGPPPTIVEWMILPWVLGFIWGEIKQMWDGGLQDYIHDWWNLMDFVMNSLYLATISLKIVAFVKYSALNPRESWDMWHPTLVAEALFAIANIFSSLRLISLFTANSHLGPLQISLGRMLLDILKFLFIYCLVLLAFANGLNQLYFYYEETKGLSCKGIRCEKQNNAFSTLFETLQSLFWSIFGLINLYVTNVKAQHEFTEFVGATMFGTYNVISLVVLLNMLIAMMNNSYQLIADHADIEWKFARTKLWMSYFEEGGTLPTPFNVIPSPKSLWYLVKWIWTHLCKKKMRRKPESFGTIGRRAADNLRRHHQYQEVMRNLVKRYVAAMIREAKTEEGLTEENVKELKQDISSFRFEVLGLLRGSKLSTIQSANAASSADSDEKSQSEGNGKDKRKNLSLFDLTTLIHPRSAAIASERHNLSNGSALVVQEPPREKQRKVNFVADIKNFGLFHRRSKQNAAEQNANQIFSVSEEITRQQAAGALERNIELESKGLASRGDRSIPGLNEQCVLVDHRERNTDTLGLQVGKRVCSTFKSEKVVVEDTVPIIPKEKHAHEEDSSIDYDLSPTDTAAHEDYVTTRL
As to the kind of experiment: mouse TRPC4 channel inhibitors, dose response, cell-based, HEK293 TRPC4/mu-opioid, Fluo-4 calcium (AID 434942).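 Also: potency of inhibitors blocking the TRPC4 calcium response.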 The assay is classed as functional.

The next assay concerns INS1. Description: beta cell apoptosis inhibitors, cytokine rescue, dose response, luminescence, retest (AID 449756).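 Also: cell death triggered by IL-1 beta plus TNF-alpha plus IFN-gamma mixture; protective hits raise ATP signal compared with cytokine alone wells.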 The note with it: Rattus norvegicus. The assay is classed as functional, cell-based.
For assay [7], the target named is DNA dC->dU-editing enzyme APOBEC-3G (Homo sapiens, UniProt Q9HC16). Description: Dose Response confirmation of small molecule APOBEC3G DNA Deaminase Inhibitors via a fluorescence-based single-stranded DNA deaminase assay. [Related pubchem assays (depositor defined):AID493012, AID493028]. Format: functional.
The target in assay [8] is DNA dC->dU-editing enzyme APOBEC-3A (Homo sapiens, UniProt P31941). As to the kind of experiment: APOBEC3A DNA deaminase inhibitors, dose response, biochemical (AID 504722). The assay is classed as functional.
For assay [9], the target named is T3, Polyadenylate-binding protein 1 (Homo sapiens, UniProt P11940). As to the kind of experiment: PABP1 MLLE–PAM2 binding inhibitor potency, dose response, biochemical, fluorescence polarization, FITC-PAM2 peptide (AID 602259). Format: functional. The note with it: read-out: IC50_Mean. (In general: In fluorescence polarisation assays a small probe gives low polarisation when free and higher when bound to something large.)

Assay [10] addresses T3, Polyadenylate-binding protein 1. As to the kind of experiment: PABP1 MLLE–PAM2 interaction inhibitors, dose response, miRNA deadenylation inhibitor project, biochemical, fluorescence polarization, Cy5-PAM2 peptide, secondary (AID 602260). The assay is classed as functional. The note with it: read-out: IC50_Mean.
The target of assay [11] is Glucose-6-phosphate 1-dehydrogenase (Homo sapiens, UniProt P11413). Description: human G6PD enzyme inhibitors, dose response, selectivity assay for P. falciparum G6PD inhibitor project, biochemical, fluorescence (AID 504792). Format: functional.
A further assay deals with Genome polyprotein (dengue virus type 2, UniProt P29990). As to the kind of experiment: Dengue-2 NS5 methyltransferase inhibitors, primary screen, biochemical, confirmation dose response (AID 588689). Format: functional.
In assay [12] the target is T4, DNA repair protein RAD52 homolog (Homo sapiens, UniProt P43351).
T4 sequence (P43351 whole entry): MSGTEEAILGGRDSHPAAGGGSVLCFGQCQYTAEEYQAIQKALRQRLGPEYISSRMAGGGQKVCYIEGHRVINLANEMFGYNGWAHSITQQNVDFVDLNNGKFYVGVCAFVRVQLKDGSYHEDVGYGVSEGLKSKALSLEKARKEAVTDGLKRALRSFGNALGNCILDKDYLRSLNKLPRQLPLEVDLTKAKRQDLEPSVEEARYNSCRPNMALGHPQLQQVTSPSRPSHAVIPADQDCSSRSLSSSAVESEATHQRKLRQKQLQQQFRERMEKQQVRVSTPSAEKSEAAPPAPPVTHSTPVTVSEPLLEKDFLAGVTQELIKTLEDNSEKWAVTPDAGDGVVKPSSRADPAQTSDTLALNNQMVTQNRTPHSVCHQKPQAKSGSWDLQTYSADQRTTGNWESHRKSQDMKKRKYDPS
Format: functional, biochemical.

In assay [13] the target is T5, DNA repair and recombination protein RAD54-like (Homo sapiens, UniProt Q92698).
T5 sequence (Q92698 whole entry): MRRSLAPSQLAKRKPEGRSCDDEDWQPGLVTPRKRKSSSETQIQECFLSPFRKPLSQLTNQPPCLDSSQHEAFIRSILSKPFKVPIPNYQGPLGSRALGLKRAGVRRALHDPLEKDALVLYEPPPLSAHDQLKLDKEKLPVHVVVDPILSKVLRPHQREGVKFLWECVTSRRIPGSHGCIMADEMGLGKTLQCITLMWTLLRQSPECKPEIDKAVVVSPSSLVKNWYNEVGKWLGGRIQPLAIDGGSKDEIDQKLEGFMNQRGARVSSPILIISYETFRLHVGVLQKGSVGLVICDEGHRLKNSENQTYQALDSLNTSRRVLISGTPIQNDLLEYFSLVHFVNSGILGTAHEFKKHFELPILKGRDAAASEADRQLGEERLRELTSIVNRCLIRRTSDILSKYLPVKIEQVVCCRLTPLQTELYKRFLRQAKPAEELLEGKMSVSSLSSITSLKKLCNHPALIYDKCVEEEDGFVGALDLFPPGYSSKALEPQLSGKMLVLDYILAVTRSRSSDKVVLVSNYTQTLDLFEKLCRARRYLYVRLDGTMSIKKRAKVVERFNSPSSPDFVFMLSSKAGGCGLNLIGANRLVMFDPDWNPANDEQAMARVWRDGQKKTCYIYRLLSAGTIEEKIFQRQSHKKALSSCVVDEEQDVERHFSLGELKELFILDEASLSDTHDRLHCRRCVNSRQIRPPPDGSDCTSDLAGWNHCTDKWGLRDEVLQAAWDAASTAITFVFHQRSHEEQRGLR
As to the kind of experiment: inhibitors of human RAD54 branch migration, confirmation, biochemical, fluorescence, cherry-picked samples, dose series (AID 651657). The assay is classed as functional.

The target in assay [14] is T6, Ubiquitin-conjugating enzyme E2 N (Homo sapiens, UniProt P61088).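 Also: Dose-response confirmation in a TR-FRET assay detecting UBC13-driven polyubiquitin chain formation, inhibition measured.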
T6 sequence (P61088 whole entry): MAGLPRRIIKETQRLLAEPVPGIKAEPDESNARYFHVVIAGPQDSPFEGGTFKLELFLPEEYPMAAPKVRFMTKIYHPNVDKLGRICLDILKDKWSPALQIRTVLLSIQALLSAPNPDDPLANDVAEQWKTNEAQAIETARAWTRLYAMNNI
The assay is classed as functional.

Assay [15] is described as follows: cytotoxicity toward DRD oncogenic fibroblasts, dose response, cell-based, non-viral oncogenic, luminescence (AID 1934). Format: functional. The note with it: Homo sapiens.
Assay [16] deals with BJ. Description: cytotoxicity toward BJ-TERT-LT-ST fibroblasts, dose response, cell-based, RAS-independent, luminescence (AID 1935).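 Also: BJ fibroblasts immortalized with TERT plus LT and ST oncogenes.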 The assay is classed as functional. The note with it: Homo sapiens.
Assay [17] deals with BJ. Description: cytotoxicity toward Ras-transformed BJeLR fibroblasts, dose response, cell-based, alamar blue fluorescence, cherrypicked samples (AID 2631).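 Also: confirmatory dose-response assay in RAS-dependent BJ fibroblasts engineered with TERT, LT and ST, with cytotoxicity read by fluorescence.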 Format: functional. The note with it: Homo sapiens. Background: The colour change of resazurin is a common sign of viable cells or microbes.
The test system of assay [18] is BJ. Description: cytotoxicity toward BJ-TERT fibroblasts, dose response, cell-based, RAS-independent, luminescence (AID 1933). Format: functional. The note with it: Homo sapiens.
The test system of assay [19] is BJ. As to the kind of experiment: cells. The assay is classed as functional, cell-based. The note with it: Homo sapiens.
The next assay addresses Large T antigen (Simian virus 40, UniProt P03070). Format: functional, Betapolyomavirus macacae.

Activity calls are given as the source filed them.

Chain of DNA dC->dU-editing enzyme APOBEC-3A (P31941 whole entry): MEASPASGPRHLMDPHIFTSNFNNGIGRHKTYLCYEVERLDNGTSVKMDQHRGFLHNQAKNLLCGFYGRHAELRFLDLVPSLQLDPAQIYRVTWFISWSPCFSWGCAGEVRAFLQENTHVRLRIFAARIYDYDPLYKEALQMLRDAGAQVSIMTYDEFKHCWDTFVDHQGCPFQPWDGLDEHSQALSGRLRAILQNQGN
Chain of DNA dC->dU-editing enzyme APOBEC-3G (Q9HC16 whole entry): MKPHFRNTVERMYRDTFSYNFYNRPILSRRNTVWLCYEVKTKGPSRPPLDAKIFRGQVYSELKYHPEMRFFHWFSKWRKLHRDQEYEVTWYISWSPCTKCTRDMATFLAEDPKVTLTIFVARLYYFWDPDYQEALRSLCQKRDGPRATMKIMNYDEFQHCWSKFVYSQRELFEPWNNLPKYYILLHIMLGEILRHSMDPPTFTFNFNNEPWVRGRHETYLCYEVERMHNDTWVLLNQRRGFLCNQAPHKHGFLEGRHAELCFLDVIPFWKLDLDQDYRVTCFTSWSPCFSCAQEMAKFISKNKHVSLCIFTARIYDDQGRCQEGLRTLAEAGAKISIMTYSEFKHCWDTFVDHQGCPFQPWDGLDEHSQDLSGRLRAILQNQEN
Chain of Glucose-6-phosphate 1-dehydrogenase (P11413 whole entry): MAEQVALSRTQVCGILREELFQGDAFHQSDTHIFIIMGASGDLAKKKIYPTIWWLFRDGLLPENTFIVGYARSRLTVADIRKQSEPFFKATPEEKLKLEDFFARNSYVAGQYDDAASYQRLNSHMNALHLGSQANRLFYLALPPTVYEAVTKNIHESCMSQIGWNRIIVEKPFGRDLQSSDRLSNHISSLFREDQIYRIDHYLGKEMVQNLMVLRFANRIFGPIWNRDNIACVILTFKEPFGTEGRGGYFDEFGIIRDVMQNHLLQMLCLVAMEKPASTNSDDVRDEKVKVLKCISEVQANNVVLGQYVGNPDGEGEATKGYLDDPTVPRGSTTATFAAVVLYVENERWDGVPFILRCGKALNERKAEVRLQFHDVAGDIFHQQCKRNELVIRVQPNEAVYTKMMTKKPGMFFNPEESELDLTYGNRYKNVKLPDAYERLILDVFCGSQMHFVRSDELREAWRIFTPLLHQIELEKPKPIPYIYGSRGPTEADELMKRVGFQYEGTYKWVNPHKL
T3 sequence (P11940 whole entry): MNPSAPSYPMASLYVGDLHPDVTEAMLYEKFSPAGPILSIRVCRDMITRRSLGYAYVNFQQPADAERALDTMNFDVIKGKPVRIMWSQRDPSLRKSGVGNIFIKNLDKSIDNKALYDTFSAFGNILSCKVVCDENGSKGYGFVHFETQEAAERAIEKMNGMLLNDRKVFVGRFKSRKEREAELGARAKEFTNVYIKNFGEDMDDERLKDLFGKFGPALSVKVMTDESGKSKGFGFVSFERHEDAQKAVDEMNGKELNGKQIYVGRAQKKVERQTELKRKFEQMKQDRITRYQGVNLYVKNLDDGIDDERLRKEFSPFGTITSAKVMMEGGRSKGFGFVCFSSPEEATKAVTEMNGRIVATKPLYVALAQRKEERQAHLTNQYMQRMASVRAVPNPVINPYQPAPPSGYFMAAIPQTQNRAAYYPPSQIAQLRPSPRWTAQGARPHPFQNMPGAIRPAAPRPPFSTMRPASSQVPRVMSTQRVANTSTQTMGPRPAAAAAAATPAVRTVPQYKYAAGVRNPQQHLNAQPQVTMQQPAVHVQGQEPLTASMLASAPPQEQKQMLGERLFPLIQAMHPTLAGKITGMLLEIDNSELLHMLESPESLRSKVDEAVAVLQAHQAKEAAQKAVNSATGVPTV
Chain of Large T antigen (P03070 whole entry): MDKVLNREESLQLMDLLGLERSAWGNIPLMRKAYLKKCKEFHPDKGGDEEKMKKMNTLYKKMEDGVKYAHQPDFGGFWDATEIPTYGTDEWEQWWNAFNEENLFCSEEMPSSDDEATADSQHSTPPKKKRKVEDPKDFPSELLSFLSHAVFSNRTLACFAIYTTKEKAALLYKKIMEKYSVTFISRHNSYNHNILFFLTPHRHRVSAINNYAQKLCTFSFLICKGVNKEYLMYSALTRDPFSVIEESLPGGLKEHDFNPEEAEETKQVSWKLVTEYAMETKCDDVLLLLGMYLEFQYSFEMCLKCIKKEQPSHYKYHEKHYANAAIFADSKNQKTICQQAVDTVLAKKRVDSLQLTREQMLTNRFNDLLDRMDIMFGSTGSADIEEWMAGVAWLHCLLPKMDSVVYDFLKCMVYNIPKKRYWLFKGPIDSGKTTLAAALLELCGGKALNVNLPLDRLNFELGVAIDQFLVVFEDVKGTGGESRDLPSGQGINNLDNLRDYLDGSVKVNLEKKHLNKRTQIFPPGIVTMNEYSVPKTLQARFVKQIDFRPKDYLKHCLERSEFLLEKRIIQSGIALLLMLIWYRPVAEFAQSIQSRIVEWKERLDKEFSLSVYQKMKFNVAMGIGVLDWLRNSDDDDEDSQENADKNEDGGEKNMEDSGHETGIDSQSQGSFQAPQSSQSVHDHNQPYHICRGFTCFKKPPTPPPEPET
Chain of Genome polyprotein (P29990 2492-3391 limits assumed): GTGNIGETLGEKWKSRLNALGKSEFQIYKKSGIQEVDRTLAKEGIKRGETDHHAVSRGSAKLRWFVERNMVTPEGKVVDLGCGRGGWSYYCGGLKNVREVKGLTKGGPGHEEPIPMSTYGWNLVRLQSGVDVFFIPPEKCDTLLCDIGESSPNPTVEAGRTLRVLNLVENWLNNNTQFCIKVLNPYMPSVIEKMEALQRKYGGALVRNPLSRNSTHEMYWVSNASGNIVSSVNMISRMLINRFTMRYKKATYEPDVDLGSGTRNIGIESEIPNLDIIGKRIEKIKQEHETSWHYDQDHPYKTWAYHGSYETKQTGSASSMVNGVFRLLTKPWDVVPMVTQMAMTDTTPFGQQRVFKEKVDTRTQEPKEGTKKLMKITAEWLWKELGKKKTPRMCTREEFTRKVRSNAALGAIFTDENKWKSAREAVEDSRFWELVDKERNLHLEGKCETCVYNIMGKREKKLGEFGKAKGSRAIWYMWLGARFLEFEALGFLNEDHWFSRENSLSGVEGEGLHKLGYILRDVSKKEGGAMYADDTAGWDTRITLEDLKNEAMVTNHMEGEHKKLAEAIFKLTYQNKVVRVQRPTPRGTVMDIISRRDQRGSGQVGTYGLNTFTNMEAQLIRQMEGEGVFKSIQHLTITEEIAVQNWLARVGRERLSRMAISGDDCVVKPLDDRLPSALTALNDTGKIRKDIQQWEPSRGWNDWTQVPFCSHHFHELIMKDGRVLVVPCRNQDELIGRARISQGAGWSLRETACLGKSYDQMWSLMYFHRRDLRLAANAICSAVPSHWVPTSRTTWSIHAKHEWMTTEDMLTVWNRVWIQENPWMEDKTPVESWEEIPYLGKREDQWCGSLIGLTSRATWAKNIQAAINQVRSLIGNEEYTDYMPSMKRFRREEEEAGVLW

On to `CC(CNC(S)=Nc1cc(F)cc(F)c1)CSc1ccc(Cl)cc1` (stereo not drawn), for which the AC50 – broadly, the midpoint of the concentration-response curve, whichever way the signal moves – in assay [1] is 6.24 µM (active). Moreover, the EC50 (as a rule, the concentration giving half of the maximal effect) with Streptococcus is 36 µM (active); in [3], 8.3 µM (active). Further, in assay [2], the IC50 is 27.8 µM (inactive).

On to `Cc1cnc(C(=O)Nc2c(-c3ccccc3)[nH][nH]c2=O)cn1`, for which the IC50 is 20.3 µM (active) in [4] and 30.3 µM (active) in [5].

With `Brc1ccccc1CN1CCN(Cc2c[nH]c3ccccc23)CC1`, in [6], the EC50 was 0.0747 µM (active). Also, in the assay with INS1, the AC50 was 2.16 µM (active).

Regarding `Cc1ccc(-c2n[nH]c(=S)n2C)cc1Cl`, the IC50 in assay [7] was 4.34 µM (active); in assay [8], > 100 µM (inactive).

Regarding `Oc1cc(-n2cccn2)c(O)cc1-n1cccn1`, the IC50 in assay [9] is > 66 µM (inactive); in [10], > 66 µM (inactive); in [11], 33 µM (inactive); on Genome polyprotein, 79.2 µM (active).

`COc1ccc(OC)c(Nc2nc(NCCCN(C)C)nc(N)c2[N+](=O)[O-])c1`: the AC50 in [12] was 7.02 µM (active); in assay [13] it was 20.2 µM (active).

On to `CCn1c(-c2cccc(Cl)c2)n[nH]c1=S`, for which the IC50 in [7] was 6.09 µM (active); in assay [8] it was > 100 µM (inactive).

As for `CCN1CCN(c2cc(C)c3cc(NC(S)=NCCCN4CCc5ccccc5C4)ccc3n2)CC1`, the concentration at half-maximal activity (AC50) was 3 µM (active) in assay [12] and 20.6 µM (active) in [13].

As to `CCS(=O)(=O)N1CCC(C(=O)N2CCc3ccccc3C2)CC1`, the IC50 in [4] is > 100 µM (inactive); in assay [5], 8.89 µM (active).

For the compound `N#CC1=C2SCN(c3ccccc3)CN2C(=O)CC1c1cccs1` (stereo not drawn), the IC50 was 7.25 µM (active) in [7] and > 100 µM (inactive) in [8].

Regarding `CCOC(=O)Nc1c2ccccc2nc2ccccc12`, the AC50 in assay [13] is 54.8 µM (active).

For the compound `O=C(CCCCCN1C(=O)c2cccc3cccc(c23)C1=O)NCc1cccnc1`, in [14], the IC50 was > 20 µM (inactive). Besides, the half-maximal effective concentration (EC50) was > 150 µM (not active) in assay [15]; > 150 µM (inconclusive) in the assay with BJ [16]; > 66.7 µM (inactive) with BJ [17]; > 150 µM (not active) with BJ [18]; 3.59 µM (inconclusive) in the assay on BJ [19].

Consider `O=C(CN1C(=O)CSC1=O)N1CCc2ccccc2C1`, for which the results for the IC50 in [4] and in assay [5] were 80.8 µM (inactive) and 10.6 µM (active), respectively.

Turning to `CCOC(=O)C1=NN(c2ccccc2C)C2=NC(C)=C(C(=O)OC)C(c3cccc(OC)c3)N12` (stereo not drawn), the EC50 in assay [6] is 2.99 µM (active).

Consider `COc1ccc(N2CSC3=C(C#N)C(c4ccc(OC)c(OC)c4)CC(=O)N3C2)c(OC)c1` (stereo not drawn), for which the IC50 is > 80 µM (inactive) in [11] and 52.7 µM (active) on Large T antigen.

As to `Sc1nnc(-c2cccnc2)n1/N=C/c1ccccc1`, the values for the IC50 in assay [7] and in assay [8] were 2.02 µM (active) and > 100 µM (inactive), respectively.
